{
  "source": "patent US20130273179A1",
  "about": "“SYSTEM AND METHOD FOR IMPROVING OUTCOME OF CEREBRAL ISCHEMIA” (ASTUCE, INC., priority 2012, published 2013)",
  "key": {"[1]": {"test_system": "cerebral blood flow", "experiment": "Cerebral blood flow by cortical laser Doppler during intranasal nitric oxide in intubated rodents", "assay_type": "in vivo", "conditions": "intranasal non-inhaled delivery, within 60 minutes", "method": "(§1) In intubated rodents, the inventors have shown that cerebral blood flow increases by 100% within 60 minutes of intranasal nitric oxide delivery."}, "[2]": {"test_system": "cerebral ischemia (carotid artery occlusion model)", "experiment": "Carotid artery occlusion model, Speckle laser Doppler, intubated rodents", "assay_type": "in vivo", "conditions": "both during the carotid occlusion and following ligature release", "method": "as §1"}, "[3]": {"test_system": "cerebral perfusion", "experiment": "CT perfusion scanning before and after intranasal nitric oxide in intubated patients with focal cerebral ischemia", "assay_type": "in vivo, human"}, "[4]": {"experiment": "Tolerability of intranasal nitric oxide in awake humans (normal volunteers)", "assay_type": "in vivo, human", "from_the_text": "While nitric oxide may be given intranasally and without inhalation into the lungs to intubated, comatose individuals the tolerability of intranasal nitric oxide in awake humans has not previously been investigated. The inventors have tested the effect of nitric oxide in humans (normal volunteers) during intranasal delivery. […] Therefore it can easily be tolerated by awake, non-intubated patients."}},
  "data": [
    {"smiles": "[N]=O", "note": "[nitric oxide]", "values": [
      {"measurement": "cerebral blood flow increase", "setting": "[1]", "result": 100, "unit": "%"},
      {"measurement": "perfusion in the ischemic hemisphere", "setting": "[2]", "result": "perfusion is improved in the ischemic hemisphere"},
      {"measurement": "Cerebral Blood Flow, Changes in ACA Watershed", "setting": "[3]; Post Rx", "result": "Normalization,"},
      {"measurement": "Mean Transit Time, Changes in ACA Watershed", "setting": "[3]; Post Rx", "result": "Normalization"},
      {"measurement": "Cerebral Blood Flow, Changes in ACA Watershed: increase in perfusion on L", "setting": "[3]; Post Rx vs Pre Rx, left (ischemic) hemisphere", "result": 67, "unit": "% increase in"},
      {"measurement": "Mean Transit Time, Right Hemisphere (normal)", "setting": "[3]; Post Rx, one hour of intranasal non-inhaled nitric oxide (Pre Rx 6)", "result": 6.1, "unit": "s"},
      {"measurement": "Mean Transit Time, Left Hemisphere (ischemic)", "setting": "[3]; Post Rx, one hour of intranasal non-inhaled nitric oxide (Pre Rx 10)", "result": 6.0, "unit": "s"},
      {"measurement": "Cerebral Blood Flow, Left Hemisphere (ischemic)", "setting": "[3]; Post Rx, one hour of intranasal non-inhaled nitric oxide (Pre Rx 31)", "result": 52},
      {"measurement": "Cerebral Blood Flow, Right Hemisphere (normal)", "setting": "[3]; Post Rx, one hour of intranasal non-inhaled nitric oxide (Pre Rx 49)", "result": 45},
      {"measurement": "cerebral perfusion during treatment (CT perfusion scanning)", "setting": "[3]; intubated patients with cerebral ischemia", "result": "augmentation of cerebral perfusion and normalization of regional perfusion abnormalities"},
      {"measurement": "tolerability of gas treatment", "setting": "[4]; humans, high concentration, intra-nasally and without inhalation", "result": "tolerated at high concentration"},
      {"measurement": "sensation during intranasal delivery", "setting": "[4]; normal volunteers, concentrations up to 100 PPM", "result": "does not elicit any sensation"}
    ]}
  ]
}
